Earlier results, collected in patent US20200289439A1, “Process of Manufacturing a Stable, Ready To Use Infusion Bag For An Oxidation Sensitive Formulation” (InnoPharma Licensing, LLC, priority 2013, published 2020).

How the values were obtained:
[1] = intravenous; therapeutic dosing, up to 4,000 mg daily
[2] = six adult volunteers

mean intravenous Cmax compared to oral route ([2]; intravenous vs oral): nearly two
mean intravenous Cmax compared to rectal route ([2]; intravenous vs rectal): four fold higher
SMILES: CC(=O)Nc1ccc(O)cc1 [Acetaminophen, N-(4-hydroxyphenyl)acetamide]
hepatotoxicity [1]: rarely associated with hepatotoxicity
